The values that follow come from publication PMC9936538, “Structure–Activity Relationship of N-Ethyl-Hexedrone Analogues: Role of the α-Carbon Side-Chain Length in the Mechanism of Action, Cytotoxicity, and Behavioral Effects in Mice” (ACS Chemical Neuroscience, 2023).

Structures are written as SMILES.

Data set [1] is described as follows: Cytotoxicity in NGF-differentiated PC12 cells, WST-8 cell viability assay. Conditions: rat, WST-8, 24 h exposure, mean ± SEM of 3–4 experiments, read-out: LC50 (approximated), cell viability. The data set is classed as cell-based. How it is done: Pheochromocytoma cells (PC12) cells were cultured in collagen-coated dishes in DMEM supplemented with heat-inactivated 5% FBS, 10% horse serum, 10 mM HEPES, 2 mM glutamine, 25 UI/mL penicillin, and 25 μg/mL streptomycin (maintenance medium) and grown at 37 °C in a humidified 5% CO2 atmosphere. Cell differentiation was performed as described[54] with minor modifications. In brief, cells were seeded (250.000 cells/well) onto 96-well plates in the maintenance medium, and after 24 h, the medium was changed to a differentiation medium containing 50 ng/mL NGF. After 24 h, neurite outgrowth was already apparent.
Treatments with different concentrations of the drug in DMEM were performed 48 h after cell differentiation. 10 μL of the tested drug was added per well, in triplicate, and cells were incubated for 24 h at 37 °C in a humidified 5% CO2 atmosphere. Thereafter, the medium was removed and immediately replaced with a maintenance medium. 10 μL of the CCK-8 Cell Counting Kit, based on 2-(2-methoxy-4-nitrophenyl)-3-(4-nitrophenyl)-5-(2,4-disulfophenyl)-2H-tetrazolium, monosodium salt (WST-8), was added per well and was incubated for 2 h at 37 °C in a humidified 5% CO2 atmosphere. This method has been defined as a good alternative to the 3-(4,5-dimethylthiazol-2-yl)-2,5-diphenyltetrazoliumbromide (MTT) assay.[63] Optical density was measured at 450 nm, using a microplate reader.
(§1) For in vitro assays, data were normalized with 100% defined as the mean of the technical replicates in the control group and expressed as mean ± SEM. Nonlinear regression was used to fit the different competition curves. Data were plotted and best fitted to a sigmoidal dose–response curve from which an IC50 or LC50 value was obtained. Transporter ratios were calculated as (1/DAT IC50: 1/SERT IC50). Although IC50 values at inhibiting 5-HT uptake for some compounds tested are expressed as >100 μM for clarity purposes, DAT/SERT ratios were calculated with the original raw data. The Cheng–Prusoff equation was used to calculate Ki (affinity): Ki = EC50/(1 + [radioligand concentration/Kd]).[65] The sample size for behavioral experiments was determined using GPower software. One-way or two-way ANOVA, and subsequent Tukey’s posthoc test, conducted only if F was significant, was used to determine the effects of cathinones on cytotoxicity, HLA, OF, and CPP experiments. The α error probability was set at 0.05 (p < 0.05). The exact size group for the behavioral experiments is shown in the corresponding figure legends. All statistic calculations were carried out using GraphPad Prism (GraphPad software, San Diego, CA, USA).
On the technique in general: Tetrazolium dyes change colour on reduction, which living cells bring about.

Data set [2] has as its target T1, hDAT (Homo sapiens, UniProt Q01959).
T1 construct: expressed in transfected cells; host or cells: HEK293
Kind of data set: Monoamine uptake inhibition, [3H]MPP+ uptake at hDAT in transfected HEK293 cells. The data set is classed as cell-based. How it is done: (§2) Human embryonic kidney cells (HEK293) stably transfected with the human DAT and SERT were used for both the uptake inhibition and transporter binding assays.[6] Cells were cultured in DMEM supplemented with heat-inactivated 10% fetal bovine serum (FBS), […], and 100 U/mL penicillin at 37 °C in a 5% CO2 humidified atmosphere. Geneticin (G418; 50 μg/mL) was added to maintain the selection process. Upon approximately 80% confluence, cells were washed with 5 mL of phosphate-buffered saline (PBS) and 1 mL of trypsin/EDTA was added. After 3 min, 9 mL of DMEM was added to stop cell trypsinization. If necessary, centrifugation was performed to pellet the cells. Cells were then resuspended, counted, and seeded onto poly-D-lysine coated (24 h/prior to the experiment) 96-well plates at a density of 0.36 million cells per well for the uptake inhibition assays.
(§3) Assays were performed as previously described.[8] On the test day, the medium was removed from the cell culture 96-well plates and immediately replaced with 200 μL of Krebs-HEPES-buffer (KHB; 10 mM HEPES, 120 mM NaCl, 3 mM KCl, 2 mM CaCl2·2H2O, 2 mM MgCl2·6H2O supplemented with 20 mM D-glucose; pH 7.3). To ensure equilibrated conditions, cells were incubated with different concentrations of the drugs in KHB at a final volume of 50 μL/well for 5 min (preincubation). The preincubation solution was removed, and cells were incubated with the tritiated compounds, 0.02 μM [^3H]MPP^+ for hDAT and 0.1 μM [^3H]5-HT for hSERT, together with various concentrations of the test drugs in KHB. The uptake incubation times were 3 min for hDAT and 1 min for hSERT. The reaction was stopped by rapid removal of the incubation solution and washout with ice-cold KHB. Cells were lysed with 1% sodium dodecyl sulfate, and lysates were subsequently transferred to vials containing scintillation fluid. Radioactivity was quantified with a beta-scintillation counter (PerkinElmer, Waltham, MA, USA). The uptake in the absence of the test drugs was normalized to 100%, and the uptake in the presence of various concentrations of cathinones was expressed as a percentage thereof. […] Four independent experiments carried out on triplicates were performed.
as §1, with “Although IC50 values at inhibiting 5-HT uptake for some compounds tested are expressed as >100 μM for clarity purposes, DAT/SERT ratios were calculated with the original raw data.” left out

In data set [3] the target is T2, hSERT (Homo sapiens, UniProt P31645).
T2 construct: expressed in transfected cells; host or cells: HEK293
The experiment in a line: Monoamine uptake inhibition, [3H]5-HT uptake at hSERT in transfected HEK293 cells. Particulars: transfected HEK293 cells; mean ± SEM of four independent experiments; read-out: [3H]5-HT uptake at hSERT, IC50. The format is cell-based. How it is done:
as §2, §3
as §1, with “Although IC50 values at inhibiting 5-HT uptake for some compounds tested are expressed as >100 μM for clarity purposes, DAT/SERT ratios were calculated with the original raw data.” left out

Data set [4] concerns the target T1, hDAT. The experiment in a line: Transporter binding, [3H]WIN 35,428 binding at hDAT (HEK293 membranes). Conditions: membranes of transfected HEK293 cells; mean ± SEM of four independent experiments; read-out: [3H]WIN 35,428 binding at hDAT, Ki. How it is done:
(§4) For membrane preparation, cells were harvested from 80 to 90% confluent dishes. HEK293 cells were washed with ice-cold phosphate-buffered saline (PBS), mechanically detached from the dish using a plastic scraper, and pelleted by centrifugation (400g for 10 min at 4 °C). The pellet was resuspended in HME buffer (20 mM HEPES NaOH, 1 mM EDTA, 2 mM MgCl2; pH 7.4), subjected to two freeze–thaw cycles in liquid nitrogen and homogenized through sonication at 4 °C. Membranes were then collected by centrifugation (40,000g for 30 min at 4 °C) and resuspended in an appropriate volume of HME buffer. The different membrane preparations aliquots were kept at −80 °C. Protein concentration was determined using the Bio-Rad Protein Reagent (Bio-Rad Laboratories, Hercules, CA).
(§5) Binding assays were performed as described.[6] […] This nonspecific binding also allows subtracting from the total binding values of the binding to other components such as membrane lipids or microfiber filters. Incubation was performed for 1 h at 22 °C. Binding reactions are stopped by rapid filtration of the membranes through GF/C glass microfiber filters presoaked with 0.5% polyethyleneimine and rapid washing with ice-cold wash buffer (120 mM NaCl, 2 mM MgCl2, 10 mM Tris, and 100 μM ZnCl2 for hDAT, and […], 2 mM MgCl2, and 10 mM Tris, for hSERT). Thereafter, the filters are placed into vials, a scintillation cocktail is added and trapped radioactivity is quantified by liquid scintillation counting. Specific binding of each drug to the transporter was defined as the difference between total binding (binding buffer in absence of the drug) and nonspecific binding. For each cathinone, four independent experiments carried out on duplicates were performed.
as §1, with “Although IC50 values at inhibiting 5-HT uptake for some compounds tested are expressed as >100 μM for clarity purposes, DAT/SERT ratios were calculated with the original raw data.” left out

For data set [5], the target named is T2, hSERT. The experiment in a line: Transporter binding, [3H]imipramine binding at hSERT (HEK293 membranes). Particulars: membranes of transfected HEK293 cells; mean ± SEM of four independent experiments; read-out: [3H]imipramine binding at hSERT, Ki. How it is done: as §4, §5
as §1, with “Although IC50 values at inhibiting 5-HT uptake for some compounds tested are expressed as >100 μM for clarity purposes, DAT/SERT ratios were calculated with the original raw data.” left out

In a further data set the test system is Swiss CD-1 mice. Kind of data set: Conditioned place preference (CPP). The data set is classed as in vivo. Conditions: 10 mg/kg i.p. How it is done: Male Swiss CD-1 mice (Janvier, Le Genest, France) weighing 30–35 g (6–8 weeks old), housed in temperature-controlled conditions (22 ± 1 °C) under a 12 h light/dark cycle and with free access to food and drinking water (standard laboratory diet, Panlab SL, Barcelona, Spain), were randomly assigned to an experimental group. Efforts were made to minimize animal use and suffering.
The potential of the studied compounds to induce reward was determined using a place conditioning paradigm, as described.[6] For this experiment, an apparatus with two distinct compartments, with differences in tactile and visual cues, communicated by a central corridor, has been used. In brief, CPP was performed in three phases: preconditioning test, conditioning, and postconditioning test. During the preconditioning phase (day 0), mice were placed in the middle of the corridor and had free access to both compartments for 15 min. The time spent in each compartment was recorded and monitored using a specific tracking software (Smart 3.0 Panlab, Barcelona, Spain). […] In the alternative session, mice received a saline i.p. injection and were placed for 20 min in the other compartment. Mice in the control group received a saline injection in every session. The compartment and session in which mice received the drug were randomized. On the test day (postconditioning phase), the same conditions as in the preconditioning phase were applied. A preference score was calculated as the difference between the time spent in the drug-paired compartment in the postconditioning test minus the time spent in the preconditioning phase.

T1 sequence (Q01959 whole entry): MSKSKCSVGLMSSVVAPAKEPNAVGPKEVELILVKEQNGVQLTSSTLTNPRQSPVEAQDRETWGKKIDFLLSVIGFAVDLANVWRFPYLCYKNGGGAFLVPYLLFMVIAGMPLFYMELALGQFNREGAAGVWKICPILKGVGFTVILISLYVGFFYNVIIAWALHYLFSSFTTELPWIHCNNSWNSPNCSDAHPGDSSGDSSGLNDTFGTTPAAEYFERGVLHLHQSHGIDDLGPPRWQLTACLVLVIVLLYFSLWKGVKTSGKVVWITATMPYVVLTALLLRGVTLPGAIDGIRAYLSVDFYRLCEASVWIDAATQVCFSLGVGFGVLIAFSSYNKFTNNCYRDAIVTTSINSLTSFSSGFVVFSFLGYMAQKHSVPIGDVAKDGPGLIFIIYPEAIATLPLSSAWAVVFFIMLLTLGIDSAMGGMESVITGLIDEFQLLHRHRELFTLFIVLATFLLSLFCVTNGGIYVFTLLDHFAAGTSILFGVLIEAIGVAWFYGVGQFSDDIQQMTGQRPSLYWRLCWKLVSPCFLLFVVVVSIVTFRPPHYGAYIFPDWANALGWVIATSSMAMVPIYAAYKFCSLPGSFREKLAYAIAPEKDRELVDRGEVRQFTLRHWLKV
T2 sequence (P31645 whole entry): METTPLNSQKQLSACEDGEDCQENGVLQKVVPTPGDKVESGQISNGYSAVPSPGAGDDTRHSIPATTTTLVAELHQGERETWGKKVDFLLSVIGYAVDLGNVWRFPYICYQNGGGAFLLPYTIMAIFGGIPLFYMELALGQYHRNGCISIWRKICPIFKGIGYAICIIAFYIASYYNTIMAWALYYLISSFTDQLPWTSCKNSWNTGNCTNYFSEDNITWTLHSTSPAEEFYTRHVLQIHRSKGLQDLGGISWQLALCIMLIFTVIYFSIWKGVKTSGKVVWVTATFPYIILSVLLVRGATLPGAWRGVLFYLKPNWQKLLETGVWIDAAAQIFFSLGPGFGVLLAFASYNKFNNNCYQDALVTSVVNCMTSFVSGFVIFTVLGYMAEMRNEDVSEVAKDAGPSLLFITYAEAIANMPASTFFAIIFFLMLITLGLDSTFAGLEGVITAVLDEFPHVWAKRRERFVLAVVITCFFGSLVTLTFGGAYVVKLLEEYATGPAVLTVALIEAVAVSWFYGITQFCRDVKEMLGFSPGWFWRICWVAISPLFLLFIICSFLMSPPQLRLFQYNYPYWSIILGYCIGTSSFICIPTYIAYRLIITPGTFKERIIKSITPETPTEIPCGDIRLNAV

For `CN[C@@H](C)Cc1ccccc1` [Meth, methamphetamine, reference compound], the CC50 at 24 h in data set [1] stood at 8730 µM.
In general, IC50 refers to the concentration at which inhibition is half-maximal. One may read the Ki as the equilibrium dissociation constant of an inhibitor or competing ligand from its target. `CCCC(C(=O)c1ccccc1)N1CCCC1` (stereo not drawn) [α-PVP, alpha-pyrrolidinovalerophenone, reference compound]: at hDAT [2] (1/DAT IC50:1/SERT IC50, calculated with the original raw data), the hDAT/hSERT inhibition ratio was 3222. In addition, the IC50 is 0.124 µM at hDAT [2] (transfected HEK293 cells, mean ± SEM of four independent experiments, read-out: [3H]MPP+ uptake at hDAT, IC50) and above 100 µM at hSERT [3]. For the same compound, the Ki on hDAT [4] was 0.019 µM; at hSERT [5], above 100 µM. For the same compound, the “CPP rewarding effect vs saline” value in the data set with Swiss CD-1 mice is on record as “induced rewarding effects”.
Regarding `COC(=O)[C@H]1[C@@H](OC(=O)c2ccccc2)C[C@@H]2CC[C@H]1N2C` [Cocaine, reference compound], the “CPP rewarding effect vs saline” value in the data set on Swiss CD-1 mice is “induced rewarding effects”.
